{"source": "patent US12023333B2", "about": "“Phenyl-sulfamoyl.benzoyc acids as ERAP1 modulators” (GREY WOLF THERAPEUTICS LIMITED, priority 2019, dated 2024)", "note": "pIC50: −log10 of the molar value."}
{"target": "T1, Purified ERAP1(37-941)-10His (ERAP1) (Homo sapiens, UniProt Q9NZ08)", "T1 construct": "Purified ERAP1(37-941)-10His (ERAP1); 10His (C)", "T1 sequence (Q9NZ08 37-941)": "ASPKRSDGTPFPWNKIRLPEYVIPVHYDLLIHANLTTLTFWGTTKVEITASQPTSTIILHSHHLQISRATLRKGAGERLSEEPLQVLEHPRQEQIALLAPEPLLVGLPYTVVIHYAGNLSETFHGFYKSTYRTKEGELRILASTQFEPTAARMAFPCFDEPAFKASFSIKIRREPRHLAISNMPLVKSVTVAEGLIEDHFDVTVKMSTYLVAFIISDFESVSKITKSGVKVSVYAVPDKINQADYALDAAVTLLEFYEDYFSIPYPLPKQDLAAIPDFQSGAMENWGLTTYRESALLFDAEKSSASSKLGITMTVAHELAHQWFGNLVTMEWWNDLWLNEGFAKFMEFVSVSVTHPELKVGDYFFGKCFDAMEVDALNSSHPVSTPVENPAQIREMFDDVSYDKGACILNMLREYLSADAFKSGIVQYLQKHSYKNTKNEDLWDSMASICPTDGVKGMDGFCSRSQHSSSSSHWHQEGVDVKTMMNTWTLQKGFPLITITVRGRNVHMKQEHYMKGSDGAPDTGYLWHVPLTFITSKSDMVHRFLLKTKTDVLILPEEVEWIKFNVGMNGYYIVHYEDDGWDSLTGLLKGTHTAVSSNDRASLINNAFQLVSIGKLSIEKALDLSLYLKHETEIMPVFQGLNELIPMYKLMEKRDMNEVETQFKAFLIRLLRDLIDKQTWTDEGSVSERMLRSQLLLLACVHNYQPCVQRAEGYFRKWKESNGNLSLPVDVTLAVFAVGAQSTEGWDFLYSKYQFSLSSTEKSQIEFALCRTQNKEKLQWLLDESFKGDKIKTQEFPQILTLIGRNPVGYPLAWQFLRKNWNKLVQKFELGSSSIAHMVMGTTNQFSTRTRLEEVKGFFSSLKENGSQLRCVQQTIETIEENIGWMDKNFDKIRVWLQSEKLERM", "assay": "ERAP1 mediated hydrolysis of an amide substrate measured in a biochemical system (10-mer decapeptide substrate)", "details": "10-mer substrate, 23° C. for 1 h, excitation 279 nm and emission 355 nm; read-out: IC50 vs Decapeptide WRVYEKC(Dnp)ALK-acid (where Dnp is Dinitrophenyl maleimide) (10-mer)", "method": "Biological Assay 1: ERAP1 Mediated Hydrolysis of an Amide Substrate Measured in a Biochemical System\n1× Assay buffer (AB): 25 mM Bis-tris propane, 0.05% w/v Hydroxypropylmethylcellulose pH 7.75 made with Optima grade water\nDecapeptide WRVYEKC(Dnp)ALK-acid (where Dnp is Dinitrophenyl maleimide) (10-mer) L-Leucine 7-amido-4-methylcoumarin (L-AMC)\n12.5 μL ERAP1 enzyme in 1×AB was combined with 250 nL test compound in DMSO. 12.5 μL of either 240 μM L-AMC in 1×AB or 100 μM 10-mer in 1×AB was added to the reaction and incubated at 23° C. for 1 h. For detection, plates were read at excitation 365 nm and emission 442 nm (L-AMC) or excitation 279 nm and emission 355 nm (10-mer). Compound IC50 was determined using a 4 parameter equation."}
{"smiles": "CCc1ccc(C(=O)O)cc1S(=O)(=O)Nc1cc(C#N)ccc1-c1ccc(C)s1", "note": "[Example 80, 3-(N-(5-cyano-2-(5-methylthiophen-2-yl)phenyl)sulfamoyl)-4-ethylbenzoic acid]", "pIC50": "> 6.30"}
{"smiles": "N#Cc1ccc(-c2ccsn2)c(NS(=O)(=O)c2cc(C(=O)O)ccc2C2CC2)c1", "note": "[Example 170, 3-(N-(5-cyano-2-(isothiazol-3-yl)phenyl)sulfamoyl)-4-cyclopropylbenzoic acid]", "pIC50": "> 6.30"}
{"smiles": "Cc1sncc1-c1ccc(-c2cccnc2)c(NS(=O)(=O)c2cc(C(=O)O)ccc2C2CC2)c1", "note": "[Example 138, 4-cyclopropyl-3-(N-(5-(5-methylisothiazol-4-yl)-2-(pyridin-3-yl)phenyl)sulfamoyl)benzoic acid]", "pIC50": "> 6.30"}
{"smiles": "Cn1nccc1-c1cc(NS(=O)(=O)c2cc(C(=O)O)ccc2C2CC2)c(-n2cccc2)cc1Cl", "note": "[Example 200, 3-(N-(4-chloro-5-(1-methylpyrazol-5-yl)-2-(pyrrol-1-yl)phenyl)sulfamoyl)-4-cyclopropylbenzoic acid]", "pIC50": "> 6.30"}
{"smiles": "N#Cc1cc(NS(=O)(=O)c2cc(C(=O)O)ccc2C2CC2)c(-c2cscn2)cc1Cl", "note": "[Example 178, 3-(N-(4-chloro-5-cyano-2-(thiazol-4-yl)phenyl)sulfamoyl)-4-cyclopropylbenzoic acid]", "pIC50": "> 6.30"}
{"smiles": "Cc1oncc1-c1cc(NS(=O)(=O)c2cc(C(=O)O)ccc2C2CC2)c(-n2cccc2)cc1Cl", "note": "[Example 205, 3-(N-(4-chloro-5-(5-methylisoxazol-4-yl)-2-(pyrrol-1-yl)phenyl)sulfamoyl)-4-cyclopropylbenzoic acid]", "pIC50": "> 6.30"}
{"smiles": "Cn1nccc1-c1cc(NS(=O)(=O)c2cc(C(=O)O)ccc2C2CC2)c(-c2ccccn2)cc1Cl", "note": "[Example 188, 3-(N-(4-chloro-5-(1-methylpyrazol-5-yl)-2-(pyridin-2-yl)phenyl)sulfamoyl)-4-cyclopropylbenzoic acid]", "pIC50": "> 6.30"}
{"smiles": "CCc1ccc(C(=O)O)cc1S(=O)(=O)Nc1cc(C(F)(F)F)ccc1-c1ccc(F)s1", "note": "[Example 67, 4-ethyl-3-(N-(2-(5-fluorothiophen-2-yl)-5-(trifluoromethyl)phenyl)sulfamoyl)benzoic acid]", "pIC50": "> 6.30"}
{"smiles": "CCc1ccc(C(=O)O)cc1S(=O)(=O)Nc1cc(C(F)(F)F)ccc1-c1cccc(C#N)c1", "note": "[Example 21, 3-(N-(3′-cyano-4-(trifluoromethyl)-[1,1′-biphenyl]-2-yl)sulfamoyl)-4-ethylbenzoic acid]", "pIC50": "> 6.30"}
{"smiles": "Cc1oncc1-c1cc(NS(=O)(=O)c2cc(C(=O)O)ccc2C2CC2)c(-n2cccc2)cc1F", "note": "[Example 202, 4-cyclopropyl-3-(N-(4-fluoro-5-(5-methylisoxazol-4-yl)-2-(pyrrol-1-yl)phenyl)sulfamoyl)benzoic acid]", "pIC50": "> 6.30"}
{"smiles": "CCc1ccc(C(=O)O)cc1S(=O)(=O)Nc1cc(S(C)(=O)=O)ccc1-c1cccc(F)c1", "note": "[Example 33, 4-ethyl-3-(N-(3′-fluoro-4-(methylsulfonyl)-[1,1-biphenyl]-2-yl)sulfamoyl)benzoic acid]", "pIC50": "> 6.30"}
{"smiles": "COc1ccc(C(=O)O)cc1S(=O)(=O)Nc1cc(C#N)ccc1-c1ccccc1", "note": "[Example 60, 3-(N-(4-cyano-[1,1′-biphenyl]-2-yl)sulfamoyl)-4-methoxybenzoic acid]", "pIC50": "> 6.30"}
{"smiles": "N#Cc1cc(NS(=O)(=O)c2cc(C(=O)O)ccc2C2CC2)c(-c2ncccn2)cc1Cl", "note": "[Example 179, 3-(N-(4-chloro-5-cyano-2-(pyrimidin-2-yl)phenyl)sulfamoyl)-4-cyclopropylbenzoic acid]", "pIC50": "> 6.30"}
{"smiles": "O=C(O)c1ccc(C2CC2)c(S(=O)(=O)Nc2cc(-c3ccns3)ccc2-c2ccccn2)c1", "note": "[Example 139, 4-cyclopropyl-3-(N-(5-(isothiazol-5-yl)-2-(pyridin-2-yl)phenyl)sulfamoyl)benzoic acid]", "pIC50": "> 6.30"}
{"smiles": "COc1ccc(C(=O)O)cc1S(=O)(=O)Nc1cc(C(F)(F)F)ccc1-c1ccnn1CC(C)C", "note": "[Example 5, 3-(N-(2-(1-isobutylpyrazol-5-yl)-5-(trifluoromethyl)phenyl)sulfamoyl)-4-methoxybenzoic acid]", "pIC50": "> 5.30"}
{"smiles": "N#Cc1ccc(-c2nccs2)c(NS(=O)(=O)c2cc(C(=O)O)ccc2C2CC2)c1", "note": "[Example 163, 3-(N-(5-cyano-2-(thiazol-2-yl)phenyl)sulfamoyl)-4-cyclopropylbenzoic acid]", "pIC50": "> 6.30"}
{"smiles": "Cc1oncc1-c1ccc(-n2cccc2)c(NS(=O)(=O)c2cc(C(=O)O)ccc2C2CC2)c1", "note": "[Example 194, 4-cyclopropyl-3-(N-(5-(5-methylisoxazol-4-yl)-2-(pyrrol-1-yl)phenyl)sulfamoyl)benzoic acid]", "pIC50": "> 6.30"}
{"smiles": "CCc1ccc(C(=O)O)cc1S(=O)(=O)Nc1cc(C(F)(F)F)ccc1-c1ccc(C)s1", "note": "[Example 58, 4-ethyl-3-(N-(2-(5-methylthiophen-2-yl)-5-(trifluoromethyl)phenyl)sulfamoyl)benzoic acid]", "pIC50": "> 6.30"}
{"smiles": "O=C(O)c1ccc(C2CC2)c(S(=O)(=O)Nc2cc(C(F)(F)F)ccc2-c2ccccc2)c1", "note": "[Example 55, 4-cyclopropyl-3-(N-(4-(trifluoromethyl)-[1,1′-biphenyl]-2-yl)sulfamoyl) benzoic acid]", "pIC50": "> 6.30"}
{"smiles": "CCc1ccc(C(=O)O)cc1S(=O)(=O)Nc1cc(C(F)(F)F)ccc1-c1cccnc1", "note": "[Example 27, 4-ethyl-3-(N-(2-(pyridin-3-yl)-5-(trifluoromethyl)phenyl)sulfamoyl)benzoic acid]", "pIC50": "> 6.30"}
{"smiles": "COc1ccc(C(=O)O)cc1S(=O)(=O)Nc1cc(S(C)(=O)=O)ccc1-c1ccc(C)s1", "note": "[Example 85, 4-methoxy-3-(N-(5-(methylsulfonyl)-2-(5-methylthiophen-2-yl)phenyl)sulfamoyl)benzoic acid]", "pIC50": "> 6.30"}
{"smiles": "Cn1ncnc1-c1cc(NS(=O)(=O)c2cc(C(=O)O)ccc2C2CC2)c(-n2cccc2)cc1F", "note": "[Example 201, 4-cyclopropyl-3-(N-(4-fluoro-5-(1-methyl-1,2,4-triazol-5-yl)-2-(pyrrol-1-yl)phenyl)sulfamoyl)benzoic acid]", "pIC50": "> 6.30"}
{"smiles": "O=C(O)c1ccc(C2CC2)c(S(=O)(=O)Nc2cc(-c3ccns3)ccc2-c2ccc(Cl)s2)c1", "note": "[Example 141, 3-(N-(2-(5-chlorothiophen-2-yl)-5-(isothiazol-5-yl)phenyl)sulfamoyl)-4-cyclopropylbenzoic acid]", "pIC50": "> 6.30"}
{"smiles": "N#Cc1ccc(-c2ncccn2)c(NS(=O)(=O)c2cc(C(=O)O)ccc2C2CC2)c1", "note": "[Example 169, 3-(N-(5-cyano-2-(pyrimidin-2-yl)phenyl)sulfamoyl)-4-cyclopropylbenzoic acid]", "pIC50": "> 6.30"}
{"smiles": "CCc1ccc(C(=O)O)cc1S(=O)(=O)Nc1cc(C#N)ccc1-c1ccc(Cl)s1", "note": "[Example 91, 3-(N-(2-(5-chlorothiophen-2-yl)-5-cyanophenyl)sulfamoyl)-4-ethylbenzoic acid]", "pIC50": "> 6.30"}
{"smiles": "COc1ccc(C(=O)O)cc1S(=O)(=O)Nc1cc(C(F)(F)F)ccc1-c1cccc(F)c1", "note": "[Example 15, 3-(N-(3′-fluoro-4-(trifluoromethyl)-[1,1′-biphenyl]-2-yl)sulfamoyl)-4-methoxybenzoic acid]", "pIC50": "> 6.30"}
{"smiles": "CCc1ccc(C(=O)O)cc1S(=O)(=O)Nc1cc(C#N)ccc1-c1ccc(C#N)s1", "note": "[Example 118, 3-(N-(5-cyano-2-(5-cyanothiophen-2-yl)phenyl)sulfamoyl)-4-ethylbenzoic acid]", "pIC50": "> 6.30"}
{"smiles": "N#Cc1ccc(-c2cscn2)c(NS(=O)(=O)c2cc(C(=O)O)ccc2C2CC2)c1", "note": "[Example 159, 3-(N-(5-cyano-2-(thiazol-4-yl)phenyl)sulfamoyl)-4-cyclopropylbenzoic acid]", "pIC50": "> 6.30"}
{"smiles": "N#Cc1cc(NS(=O)(=O)c2cc(C(=O)O)ccc2C2CC2)c(-c2ccsn2)cc1F", "note": "[Example 181, 3-(N-(5-cyano-4-fluoro-2-(isothiazol-3-yl)phenyl)sulfamoyl)-4-cyclopropylbenzoic acid]", "pIC50": "> 6.30"}
{"smiles": "CCc1ccc(C(=O)O)cc1S(=O)(=O)Nc1cc(S(C)(=O)=O)ccc1-c1cccs1", "note": "[Example 34, 4-ethyl-3-(N-(5-(methylsulfonyl)-2-(thiophen-2-yl)phenyl)sulfamoyl) benzoic acid]", "pIC50": "> 6.30"}
{"smiles": "COc1ccc(C(=O)O)cc1S(=O)(=O)Nc1cc(C(F)(F)F)ccc1-c1ccncc1", "note": "[Example 14, 4-methoxy-3-(N-(2-(pyridin-4-yl)-5-(trifluoromethyl)phenyl)sulfamoyl)benzoic acid]", "pIC50": "< 5.30"}
{"smiles": "Cn1ncnc1-c1cc(NS(=O)(=O)c2cc(C(=O)O)ccc2C2CC2)c(-n2cccc2)cc1Cl", "note": "[Example 204, 3-(N-(4-chloro-5-(1-methyl-1,2,4-triazol-5-yl)-2-(pyrrol-1-yl)phenyl)sulfamoyl)-4-cyclopropylbenzoic acid]", "pIC50": "> 6.30"}
{"smiles": "CCc1ccc(C(=O)O)cc1S(=O)(=O)Nc1cc(C#N)ccc1-c1ccc(F)s1", "note": "[Example 101, 3-(N-(5-cyano-2-(5-fluorothiophen-2-yl)phenyl)sulfamoyl)-4-ethylbenzoic acid]", "pIC50": "> 6.30"}
{"smiles": "N#Cc1cc(NS(=O)(=O)c2cc(C(=O)O)ccc2C2CC2)c(-n2cccc2)cc1Cl", "note": "[Example 161, 3-(N-(4-chloro-5-cyano-2-(pyrrol-1-yl)phenyl)sulfamoyl)-4-cyclopropylbenzoic acid]", "pIC50": "> 6.30"}
{"smiles": "Cc1sncc1-c1ccc(-c2cccc(F)c2)c(NS(=O)(=O)c2cc(C(=O)O)ccc2C2CC2)c1", "note": "[Example 136, 4-cyclopropyl-3-(N-(3′-fluoro-4-(5-methylisothiazol-4-yl)-[1,1′-biphenyl]-2-yl)sulfamoyl)benzoic acid]", "pIC50": "> 6.30"}
